We go through two molecules from publication PMC7997155, “Permeability of the Cyanotoxin Microcystin-RR across a Caco-2 Cells Monolayer” (Toxins, 2021).

Starred links: 1 amine or outer side, 2 acyl side, 3 side chain; linkers in the order of their positions; H or OH if unused. Positions of bridges follow the written chain, without caps; N, C: chain ends. Non-standard residues stand in square brackets, D forms with d. Residues, ends and D or L forms follow the SMILES beside them. Adda = CO[C@@H](Cc1ccccc1)[C@@H](C)/C=C(C)/C=C/[C@H](N[*:1])[C@H](C)C(=O)[*:2]; dAsp(3S-Me) = C[C@H](C(=O)[*:3])[C@@H](N[*:1])C(=O)[*:2]; d(γGlu) = O=C(O)[C@@H](CCC(=O)[*:2])N[*:1]; NMeDha = C=C(NC)C(=O)O

The subject of one series is Caco-2 cell monolayer. The class given is in vitro ADME, human.
Series [1] in a line: Binding to plastic (preliminary experiment). The class given is in vitro ADME. On the procedure:
Experiments were performed as previously described, with a few modifications, described as follows. Four solutions of MC-RR (1, 10, 25, and 55 µM) were prepared in the transport buffer (HBSS, 4-(2-Hydroxyethyl)piperazine-1-ethanesulfonic acid (HEPES) 5 mM, pH 7.4) in glass vials and loaded into the donor compartments: 300 µL in compartments A (for A–B transport experiments) and 1000 µL in compartment B (for B–A transport experiments). The final concentration of methanol in the transport buffer for all MC-RR solutions was set at 1.3%, which was previously shown not to alter the integrity of Caco-2 cell monolayers. In a preliminary experiment, the binding of MC-RR to plastic was checked and considered negligible (data not shown). At different time points (1, 2, 4, 6, and 24 h for A–B transport experiments and 1, 2, 4, and 6 h for B–A transport experiments), the whole volume of each compartment was harvested and stored in glass vials at −20 °C until analysis. Due to the toxicity of methanol 1.3% when applied in compartment B for 24 h, this time point was not performed for B–A experiments. Only Caco-2 cell monolayers with a TEER > 250 ohm.cm² before and after transport experiments were used. […]. These threshold values correspond to those preconized by the European Center for the Validation of Alternatives Methods. Four independent experiments were performed.

Another series has as its system Caco-2 cell monolayers. Particulars: Caco-2 monolayers; ref historical data generated in our laboratory; cited from earlier work. On the procedure:
Experiments were performed as previously described, with a few modifications, described as follows. Four solutions of MC-RR (1, 10, 25, and 55 µM) were prepared in the transport buffer (HBSS, 4-(2-Hydroxyethyl)piperazine-1-ethanesulfonic acid (HEPES) 5 mM, pH 7.4) in glass vials and loaded into the donor compartments: 300 µL in compartments A (for A–B transport experiments) and 1000 µL in compartment B (for B–A transport experiments). The final concentration of methanol in the transport buffer for all MC-RR solutions was set at 1.3%, which was previously shown not to alter the integrity ...

For `C=C1C(=O)N[C@H](C)C(=O)N[C@@H](CCCNC(=N)N)C(=O)N[C@@H](C(=O)O)[C@H](C)C(=O)N[C@@H](CCCNC(=N)N)C(=O)N[C@@H](/C=C/C(C)=C/[C@H](C)[C@H](Cc2ccccc2)OC)[C@H](C)C(=O)N[C@@H](C(=O)O)CCC(=O)N1C` [MC-RR, microcystin-RR] (R[Adda][d(γGlu)][NMeDha][dA]R[dAsp(3S-Me)]-OH; lactam N-7), in the series with Caco-2 cell monolayer, the “Amount detected in the apical compartment” value was “below the lower LOQ”, the “Amount detected in the basolateral compartment” value is “below the lower LOQ”, the “Decrease of MC-RR amounts in the basolateral (donor) compartment” value is 25 % of the loaded amount and the “Involvement of an active efflux mechanism (A–B versus B–A Papp)” value is on record as “no involvement of an active efflux mechanism”. Besides, the Binding to plastic result in series [1] is listed as “negligible”.

As to lucifer yellow, the “Papp of lucifer yellow corresponding to a TEER value of 250 ohm.cm²” value in the series on Caco-2 cell monolayers was 0.6 ×10⁻⁶ cm/s.
